The record followed here is patent US20220073532A1, “INHIBITORS OF CGAS ACTIVITY AS THERAPEUTIC AGENTS” (BELLBROOK LABS, LLC, priority 2019, published 2022).

Values after ≈ are worked out from the molar mass of the structure shown.

One data set concerns THP1 cGAS KO cells. The experiment in a line: Specificity test in THP-Dual cGAS knockout cells. It counts as cell-based, human. From the text: FIG. 5 includes (A) a schematic showing the THP1 dual-cell reporter system: secreted luciferase reports on IRF3-driven transcription; secreted alkaline phosphatase reports on NFκB-driven transcription, both downstream of cGAS/STING. THP-Dual cGAS knockout cells are used to test for non-specific effects; (B) a plot of the dose response for inhibition of Luc expression by Compound 15; (C) a plot of the dose response for inhibition of Luc expression by the TBK1 inhibitor, BX-795; and (D) a plot of the dose response for inhibition of SEAP expression by Compound 15.
IFN induction in human monocyte cell lines: The human monocyte cell line THP-1 gives a robust cGAS/STING-dependent type I IFN response and has been used extensively for studies on the pathway. Typically, cells are stimulated by transfection with dsDNA and gene expression is assessed using an ELISA for IFNβ, a reporter gene assay, and/or cGAS/STING pathway markers such as STING phosphorylation. These assays were validated using the TBK1 inhibitor, BX-795, which acts downstream of cGAS/STING, as a probe; THP-1 Dual cells (Invivogen, San Diego) are used as the reporter cell line for routine compound testing (FIG. 5A). These assays were optimized, including equalizing responses with transfected DNA and cGAMP and comparing responses between undifferentiated cells and cells that have been differentiated to macrophages (which show little difference). […] Stimulation of THP-1 Dual cells with damage-associated molecular pattern molecules (DAMPs) that act through pattern recognition receptors other than cGAS provides another way to confirm the specificity of putative cGAS inhibitors.

A further data set deals with cGAS (Homo sapiens, UniProt Q8N884). The experiment in a line: SPR / biophysical binding to cGAS. Particulars: enzymatic analysis and SPR, TSA. From the text:
Following confirmation of hits at three concentrations and removal of compounds with visually evident reactivity or metabolic liabilities, non-stoichiometric inhibitors, aggregators, DNA intercalators and redox-active compounds were triaged (FIG. 2E) using established assays. […] Initial SAR based on more than 100 commercially available analogs provided additional confidence that the compounds were bonafide inhibitors, and informed potential scaffold hops and toleration for modifications.
A highly efficient platform for preclinical drug discovery (FIG. 3) was assembled, providing for development of cGAS inhibitors, which is improved by the addition of a powerful computational modeling method and in vivo PK studies (FIG. 3). […]
Biochemical and biophysical analysis: Potency and MOA studies, including Mn^2+ sensitivity, are performed using the cGAS enzymatic assay. […] Competition with ATP and GTP is assessed by comparing basal IC50 values to those in the presence of saturating ATP or GTP, and subsequently confirmed by measuring velocity vs. substrate at varying ATP or GTP levels. […]

Data set [1] can be described thus: Human microsomal stability (NADPH). It counts as in vitro ADME. The note with it: liver microsomes, read-out: Human MS Stability (NADPH) t1/2. The procedure:
(§1) ADME/PK: Compounds are tested in Caco-2 and MDR1-MDCK permeability assays to provide a measure of intestinal absorption, blood-brain-permeability and efflux by P-glycoprotein (P-gp), a frequent obstacle to effective CNS delivery. CNS drugs are associated with high passive membrane permeability (Papp>1×10^−6 cm/sec) and have low efflux ratios (Papp(B-A)/Papp(A-B)<2.5). Metabolic stability is tested using mouse and human liver microsomes incubated with NADPH for CYP-dependent metabolism and with UDPGA for glucuronidation. Compounds are tested for pharmacokinetics and brain penetration in mice using oral, intravenous and intraperitoneal administration.

Data set [2] deals with MDCK-MDR (Madin-Darby Canine Kidney cells-Multi Drug Resistance pump). Description: MDCK-MDR permeability. It counts as in vitro ADME. The method, then: as §1
The next data set concerns MDR1 (P-glycoprotein). The experiment in a line: MDCK-MDR permeability. Format: in vitro ADME, canine. Particulars: dog, MDCK-MDR1. The procedure:
as §1

A further data set is described as follows: Ksol (PBS, pH 7.4). Format: physicochemical. Particulars: pH 7.4, aqueous buffer, kinetic from dmso stock.
A short description of data set [3]: Mouse microsomal stability (NADPH). It counts as in vitro ADME. Particulars: liver microsomes, read-out: Mouse MS Stability (NADPH) t1/2. The method, then: as §1
A general note: Liver microsomes are a subcellular fraction often used to study metabolism.

cGAS, sequence (Q8N884 whole entry): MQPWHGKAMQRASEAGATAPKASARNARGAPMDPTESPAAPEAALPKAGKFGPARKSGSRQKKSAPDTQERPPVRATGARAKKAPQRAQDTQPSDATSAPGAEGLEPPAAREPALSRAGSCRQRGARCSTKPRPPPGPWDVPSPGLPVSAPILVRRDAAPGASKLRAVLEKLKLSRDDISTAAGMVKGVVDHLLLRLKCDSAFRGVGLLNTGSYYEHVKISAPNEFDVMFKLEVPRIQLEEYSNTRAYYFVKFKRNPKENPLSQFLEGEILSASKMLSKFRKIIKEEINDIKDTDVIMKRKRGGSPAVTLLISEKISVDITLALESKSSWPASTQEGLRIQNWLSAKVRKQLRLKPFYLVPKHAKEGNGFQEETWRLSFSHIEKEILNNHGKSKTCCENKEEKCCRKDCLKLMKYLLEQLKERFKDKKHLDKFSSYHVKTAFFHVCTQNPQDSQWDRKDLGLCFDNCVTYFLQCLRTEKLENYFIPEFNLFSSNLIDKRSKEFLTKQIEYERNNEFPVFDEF

Turning to `Cc1nc(N2CCC[C@H]2C(=O)O)c2oc3ccccc3c2n1` [Compound 15, (2-methylbenzofuro[3,2-d]pyrimidin-4-yl)-L-proline], the “effect on IRF3-driven Luc expression in THP1 cGAS KO cells stimulated with LPS” value with THP1 cGAS KO cells (LPS-stimulated, cGAS KO) is “no effect”. In addition, the “inhibition in cGAMP-stimulated cells lacking cGAS” value in the data set with THP1 cGAS KO cells (cGAMP-stimulated, cGAS knockout) is listed as “essentially no inhibition”. The “binding stoichiometry to cGAS” value at cGAS is on record as “Stoichiometric binding (1:1)”. Also, the half-life in data set [1] and in data set [3] was over 2 h each time. Moreover, in data set [2], the MDR-1-mediated export result was “no indication of MDR-1-mediated export”. Further, the efflux ratio with MDR1 (P-glycoprotein) is 0.4. In the data set with MDR1 (P-glycoprotein) (A→B), the Papp A→B came to 9.8 ×10⁻⁶ cm/s. Besides, in the data set “Ksol (PBS, pH 7.4)”, the kinetic solubility worked out at 520 µM (≈ 155 µg/mL).

As a reminder, the efflux ratio is the permeability from basolateral to apical divided by that in the opposite direction, in the common usage. For orientation: Papp A→B means how fast a substance crosses the layer from the apical side. A word on the kinetic solubility: it is solubility judged after dilution from a stock solution rather than from solid.
